In patent publication US9440982B2 (Eolas Therapeutics, Inc., priority 2012, dated 2016):
Like-named read-outs stand apart in the source and are kept apart here.

Legend:
[1] = target: T1, OX1 (Homo sapiens, UniProt O43613); assay: Orexin receptor cell-based functional assay, [Ca2+]i by FLIPR, CHO-OX1 cells
T1 construct: expressed in transfected cells; host or cells: CHO (CHO-OX1, kept under selection antibiotic)
T1 sequence (O43613 1-425): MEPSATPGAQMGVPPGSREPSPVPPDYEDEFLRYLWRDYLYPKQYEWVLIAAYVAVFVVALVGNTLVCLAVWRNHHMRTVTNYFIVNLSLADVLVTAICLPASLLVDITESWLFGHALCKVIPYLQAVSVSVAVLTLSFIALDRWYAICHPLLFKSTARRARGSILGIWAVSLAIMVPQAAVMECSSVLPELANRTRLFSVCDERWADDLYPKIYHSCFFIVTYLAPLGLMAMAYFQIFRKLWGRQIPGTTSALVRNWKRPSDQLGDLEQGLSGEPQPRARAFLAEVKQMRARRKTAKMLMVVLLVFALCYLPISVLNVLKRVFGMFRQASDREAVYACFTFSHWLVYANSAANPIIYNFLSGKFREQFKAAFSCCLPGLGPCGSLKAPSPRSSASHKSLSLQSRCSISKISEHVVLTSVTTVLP
Summary of the method: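 CHO cells expressing human OX1 or OX2 loaded with calcium dye plus 2.5 mM probenecid at 37° C (calcium4, 30 min, or calcium6, 2 h), then exposed to compounds (0.1 nM-10 μM) for 30 min. Intracellular Ca2+ measured on FLIPR; antagonist format.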

[2] = target: T2, OX2 (Homo sapiens, UniProt O43614); assay: Orexin receptor cell-based functional assay, [Ca2+]i by FLIPR, CHO-OX2 cells; details: [Ca2+]i by FLIPR, antagonist dose-range 0.1 nM-10 μM, EC90 of OXA, read-out: OX2
T2 construct: expressed in transfected cells; host or cells: CHO (CHO-OX2, kept under selection antibiotic)
T2 sequence (O43614 1-444): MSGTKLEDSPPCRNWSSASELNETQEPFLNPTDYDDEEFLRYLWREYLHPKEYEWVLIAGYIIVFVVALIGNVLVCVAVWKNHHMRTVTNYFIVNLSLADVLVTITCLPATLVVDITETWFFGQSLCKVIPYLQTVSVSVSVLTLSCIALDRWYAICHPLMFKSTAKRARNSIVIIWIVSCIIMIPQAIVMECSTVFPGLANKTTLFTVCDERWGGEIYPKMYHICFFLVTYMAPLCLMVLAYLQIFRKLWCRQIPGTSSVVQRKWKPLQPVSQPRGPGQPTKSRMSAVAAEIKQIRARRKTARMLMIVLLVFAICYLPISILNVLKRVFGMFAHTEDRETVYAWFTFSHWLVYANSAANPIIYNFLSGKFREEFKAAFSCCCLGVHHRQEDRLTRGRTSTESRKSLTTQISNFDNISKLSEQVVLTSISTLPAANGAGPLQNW
Procedure: Measurement of [Ca^2+]i using a FLIPR: CHO—OX1 or CHO—OX2 cells are seeded into black-walled clear-base 384-well plates (Costar) at a density of 20,000 cells per well in F12-K medium supplemented with 10% FBS and selection antibiotic (500 ug/ml G418 or 15 ug/ml Blasticidin) and cultured overnight. The cells are incubated with equal volume of calcium4 loading buffer (Molecular Devices, Inc.) containing 2.5 mM probenecid at 37° C. for 30 min, followed by putative OX1 or OX2 receptor antagonists (dose-range 0.1 nM-10 μM) for another 30 min.
The cells are incubated with equal volume of calcium6 loading buffer (Molecular Devices, Inc.) containing 2.5 mM probenecid at 37° C. for 2 h, followed by test compounds (dose-range 0.1 nM-10 μM) for another 30 min.

[3] = target: T3, CYP3A4 (Homo sapiens, UniProt P08684); assay: Cytochrome P450 inhibition assay (midazolam hydroxylation); type: in vitro ADME; details: human, human liver microsomes, probe midazolam (hydroxylation to 1′-hydroxymidazolam), 10 μM test compound, midazolam at approximately its Km
T3 construct: pre-incubated with human liver microsomes and NADPH; from tissue; host or cells: human liver microsomes
T3 sequence (P08684 whole entry): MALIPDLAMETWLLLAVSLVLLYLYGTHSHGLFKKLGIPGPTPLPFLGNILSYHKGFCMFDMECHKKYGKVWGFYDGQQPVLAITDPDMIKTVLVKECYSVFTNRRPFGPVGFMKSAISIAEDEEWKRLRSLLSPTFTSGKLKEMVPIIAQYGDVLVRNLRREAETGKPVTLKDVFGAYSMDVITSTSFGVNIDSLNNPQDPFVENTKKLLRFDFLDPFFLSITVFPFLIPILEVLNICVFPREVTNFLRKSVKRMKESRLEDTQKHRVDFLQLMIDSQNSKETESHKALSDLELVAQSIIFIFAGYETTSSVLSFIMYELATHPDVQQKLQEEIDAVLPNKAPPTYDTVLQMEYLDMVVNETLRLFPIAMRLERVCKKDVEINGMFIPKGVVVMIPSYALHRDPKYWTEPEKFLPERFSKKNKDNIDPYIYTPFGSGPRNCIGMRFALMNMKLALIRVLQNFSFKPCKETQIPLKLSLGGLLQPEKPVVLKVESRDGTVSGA
Summary of the method: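 Human liver microsomes; CYP3A4 activity as midazolam 1′-hydroxylation with substrate near Km, with or without 10 μM test compound, read as percent inhibition. For time-dependent inhibition, parallel samples were preincubated 30 min with NADPH before substrate, and percent inhibition compared with non-preincubated samples.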

[4] = CHO-OX1 cells, [Ca2+]i by FLIPR, antagonist dose-range 0.1 nM-10 μM, EC90 of OXA, read-out: OX1

For `Cc1c(F)ccc(-c2ncccn2)c1C(=O)N1CCC[C@@H](C)[C@H]1CNc1ccc(C(F)(F)F)cn1` [Example A386, (3-fluoro-2-methyl-6-(pyrimidin-2-yl)phenyl)((2S,3R)-3-methyl-2-(((5-(trifluoromethyl)pyridin-2-yl)amino)methyl)piperidin-1-yl)methanone], the IC50 [1, 4] was 0.005 µM and the IC50 [2] was greater than 5000 nM.
`Cc1cc(-n2nccn2)c(C(=O)N2CCC[C@@H](C)[C@H]2CNc2ncc(C(F)(F)F)cn2)cc1F` [Example A361, (5-fluoro-4-methyl-2-(2H-1,2,3-triazol-2-yl)phenyl)((2S,3R)-3-methyl-2-(((5-(trifluoromethyl)pyrimidin-2-yl)amino)methyl)piperidin-1-yl)methanone] gave an IC50 [1, 4] of 0.004 µM and an IC50 [2] greater than 5000 nM.
`Cc1ccc(-c2ncccn2)c(C(=O)N2CCC[C@@H](C)[C@H]2CNc2ccc(C(F)(F)F)cn2)c1F` [Example A320, (2-Fluoro-3-methyl-6-(pyrimidin-2-yl)phenyl)((2S,3R)-3-methyl-2-(((5-(trifluoromethyl)pyridin-2-yl)amino)methyl)piperidin-1-yl)methanone] gave an IC50 [1, 4] of 0.002 µM and an IC50 [2] of 1400 nM.
`Cc1c(F)ccc(-c2ncccn2)c1C(=O)N1CCC[C@@H](C)[C@H]1CNc1ncc(C(F)(F)F)cn1` [Example A387, (3-fluoro-2-methyl-6-(pyrimidin-2-yl)phenyl)((2S,3R)-3-methyl-2-(((5-(trifluoromethyl)pyrimidin-2-yl)amino)methyl)piperidin-1-yl)methanone] gave an IC50 [1, 4] of 0.03 µM and an IC50 [2] greater than 5000 nM.
In the case of `Cc1c(F)ccc(-n2nccn2)c1C(=O)N1CCC[C@@H](C)[C@H]1CNc1ncc(C(F)(F)F)cn1` [Example A385, (3-fluoro-2-methyl-6-(2H-1,2,3-triazol-2-yl)phenyl)((2S,3R)-3-methyl-2-(((5-(trifluoromethyl)pyrimidin-2-yl)amino)methyl)piperidin-1-yl)methanone], the IC50 [1, 4] is reported as 0.024 µM and the IC50 [2] is reported as greater than 5000 nM.
Work on `Cc1ccc(F)c(C(=O)N2CCC[C@@H](C)[C@H]2CNc2ccc(C(F)(F)F)cn2)c1-n1nccn1` [Example A352, (6-Fluoro-3-methyl-2-(2H-1,2,3-triazol-2-yl)phenyl)((2S,3R)-3-methyl-2-(((5-(trifluoromethyl)pyridin-2-yl)amino)methyl)piperidin-1-yl)methanone] yielded an IC50 [1, 4] of 0.004 µM and an IC50 [2] of 1500 nM.
For `Cc1ccc(-n2nccn2)c(C(=O)N2CC3CCCC3C2CNc2nc3cc(Cl)ccc3o2)c1` (centres unmarked) [Example A68, (1-(((5-Chlorobenzo[d]oxazol-2-yl)amino)methyl)hexahydrocyclopenta[c]pyrrol-2(1H)-yl)(5-methyl-2-(2H-1,2,3-triazol-2-yl)phenyl)methanone], the IC50 [1, 4] was 0.25 µM and the IC50 [2] was 3360 nM.
For `Cc1ccc(-c2cnn(C)c2)c(C(=O)N2CC3CCCC3C2CNc2nc3cc(Cl)ccc3o2)c1` (centres unmarked) [Example A70, (1-(((5-Chlorobenzo[d]oxazol-2-yl)amino)methyl)hexahydrocyclopenta[c]pyrrol-2(1H)-yl)(5-methyl-2-(1-methyl-1H-pyrazol-4-yl)phenyl)methanone], the IC50 [1, 4] was 2.5 µM and the IC50 [2] was 7800 nM.
`Cc1cccc(-n2nccn2)c1C(=O)N1CCC[C@@H](C)[C@H]1CNc1ccc(C(F)(F)F)cn1` [Example A265, ((2S,3R)-3-Methyl-2-(((5-(trifluoromethyl)pyridin-2-yl)amino)methyl)piperidin-1-yl)(2-methyl-6-(2H-1,2,3-triazol-2-yl)phenyl)methanone] gave an IC50 [1, 4] of 0.008 µM and an IC50 [2] greater than 5000 nM.
Compound `C[C@@H]1CCCN(C(=O)c2c(-c3ncccn3)ccc(F)c2F)[C@@H]1CNc1ccc(C(F)(F)F)cn1` [Example A388, (2,3-Difluoro-6-(pyrimidin-2-yl)phenyl)((2S,3R)-3-methyl-2-(((5-(trifluoromethyl)pyridin-2-yl)amino)methyl)piperidin-1-yl)methanone] has an IC50 [1, 4] of 0.004 µM and an IC50 [2] greater than 5000 nM.
Work on `C[C@@H]1CCCN(C(=O)c2cc(F)cc(F)c2-n2nccn2)[C@@H]1CNc1ccc(C(F)(F)F)cn1` [Example A328, (3,5-Difluoro-2-(2H-1,2,3-triazol-2-yl)phenyl)((2S,3R)-3-methyl-2-(((5-(trifluoromethyl)pyridin-2-yl)amino)methyl)piperidin-1-yl)methanone] yielded an IC50 [2] greater than 5000 nM.
With `Cc1ccc(-c2ncccn2)c(C(=O)N2CCC[C@@H](C)[C@H]2CNc2nc3ccccc3o2)c1` [Example A204, ((2S,3R)-2-((Benzo[d]oxazol-2-ylamino)methyl)-3-methylpiperidin-1-yl)(5-methyl-2-(pyrimidin-2-yl)phenyl)methanone] the IC50 [1, 4] was 0.003 µM and the inhibition at 10 µM [3] was 60%.
Compound `Cc1ccc(-n2nccn2)c(C(=O)N2CCC[C@@H](C)[C@H]2CNc2ncc(C(F)(F)F)cn2)n1` [Example A175, ((2S,3R)-3-Methyl-2-(((5-(trifluoromethyl)pyrimidin-2-yl)amino)methyl)piperidin-1-yl)(6-methyl-3-(2H-1,2,3-triazol-2-yl)pyridin-2-yl)methanone] has an IC50 [1, 4] of 0.001 µM and an inhibition at 10 µM [3] of 33%.
In the case of `Cc1ccc(-n2cccn2)c(C(=O)N2CCC[C@@H](C)[C@H]2CNc2ccc(C)nn2)c1` [Example A154, ((2S,3R)-3-Methyl-2-(((6-methylpyridazin-3-yl)amino)methyl)piperidin-1-yl)(5-methyl-2-(1H-pyrazol-1-yl)phenyl)methanone], the IC50 [1, 4] is reported as greater than 1 µM and the inhibition at 10 µM [3] is reported as 43%.
`Cc1ccc(-n2nccn2)c(C(=O)N2CCC[C@@H](C)[C@H]2CNc2ccc(C#N)cn2)c1` [Example A127, 6-((((2S,3R)-3-Methyl-1-(5-methyl-2-(2H-1,2,3-triazol-2-yl)benzoyl)piperidin-2-yl)methyl)amino)nicotinonitrile] showed an IC50 [1, 4] of 0.005 µM and an inhibition at 10 µM [3] of 57%.
Compound `Cc1ccc(-c2cnn(C)c2)c(C(=O)N2CCC[C@@H](C)[C@H]2CNc2nc3ccccc3o2)c1` [Example A2, ((2S,3R)-2-((Benzo[d]oxazol-2-ylamino)methyl)-3-methylpiperidin-1-yl)(5-methyl-2-(1-methyl-1H-pyrazol-4-yl)phenyl)methanone] has an IC50 [1, 4] of 0.061 µM and an inhibition at 10 µM [3] of 93%.
Work on `C[C@@H]1CCCN(C(=O)c2cc(F)ccc2-n2nccn2)[C@@H]1CNc1ccc(C(F)(F)F)cn1` [Example A310] yielded an IC50 ([1]; OX1 (μM)) of 0.003 µM and an inhibition at 10 µM [3] of 75%.
`C[C@@H]1CCCN(C(=O)c2c(F)cccc2-n2nccn2)[C@@H]1CNc1ccc(C(F)(F)F)cn1` [Example A258, (2-Fluoro-6-(2H-1,2,3-triazol-2-yl)phenyl)((2S,3R)-3-methyl-2-(((5-(trifluoromethyl)pyridin-2-yl)amino)methyl)piperidin-1-yl)methanone] gave an IC50 [1, 4] of 0.004 µM and an inhibition at 10 µM [3] of 69%.
With `C[C@@H]1CCCN(C(=O)c2cc(F)c(F)cc2-c2ncccn2)[C@@H]1CNc1ncc(Cl)cn1` [Example A244, ((2S,3R)-2-(((5-Chloropyrimidin-2-yl)amino)methyl)-3-methylpiperidin-1-yl) (4,5-difluoro-2-(pyrimidin-2-yl)phenyl)methanone] the IC50 [1, 4] was 1.3 µM and the inhibition at 10 µM [3] was 70%.
`Cc1cc(-n2nccn2)c(C(=O)N2CCC[C@@H](C)[C@H]2CNc2ccc(C(F)(F)F)cn2)cc1F` [Example A360, (5-Fluoro-4-methyl-2-(2H-1,2,3-triazol-2-yl)phenyl)((2S,3R)-3-methyl-2-(((5-(trifluoromethyl)pyridin-2-yl)amino)methyl)piperidin-1-yl)methanone] gave an IC50 [2] greater than 5000 nM.
